Assay results reported in patent publication US7015228B2, “4-amino-2-(2-pyridyl)pyrimidines as microbicidal active substances” (Ciba Specialty Chemicals Corporation, priority 2001, dated 2006).
Values after ≈ are worked out from the molar mass of the structure shown.

Key:
Type in all cases: cell-based
[1] = test system: Candida albicans ATCC 10231; test: Minimum inhibitory concentration (MIC), further microorganisms; details: Table 8; * = significant inhibition of growth, but not complete inhibition
Method in brief: (§1)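 Broth microdilution in DMSO, 1:2 series; inocula adjusted to 1–5×10^6 CFU/ml then diluted 1:100 in CASO broth (bacteria, yeast) or Sabouraud 2% glucose broth (mould). Incubation 48 h at 37° C or 5 days at 28° C; MIC = lowest concentration giving ≦20% growth versus control by OD 620 nm.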

[2] = test system: Enterococcus hirae ATCC 10541; test: as above; details: Table 8; * = significant inhibition of growth, but not complete inhibition
Method in brief: as §1

[3] = test system: Salmonella choleraesuis ATCC 10708; test: as above; details: Table 8
Method in brief: as §1

[4] = test system: Epidermophyton floccosum DSM 10709; test: as above; details: Table 8; * = significant inhibition of growth, but not complete inhibition
Method in brief: as §1

[5] = test system: Staphylococcus aureus ATCC 9144; test: as above; details: Table 8; * = significant inhibition of growth, but not complete inhibition
Method in brief: as §1

[6] = test system: Aspergillus niger ATCC 6275; test: as above; details: Table 8; * = significant inhibition of growth, but not complete inhibition
Method in brief: as §1

[7] = test system: S. epidermidis ATCC 12228; test: as above; details: Table 8; * = significant inhibition of growth, but not complete inhibition
Method in brief: as §1

[8] = test system: Micrococcus luteus ATCC 9341; test: as above; details: Table 8; * = significant inhibition of growth, but not complete inhibition
Method in brief: as §1

[9] = test system: Trichophyton mentagrophytes ATCC 9533; test: as above; details: Table 8; * = significant inhibition of growth, but not complete inhibition
Method in brief: as §1

[10] = test system: Klebsiella pneumonia ATCC 4352; test: as above; details: Table 8; * = significant inhibition of growth, but not complete inhibition
Method in brief: as §1

[11] = test system: Pseudomonas aeruginosa CIP A-22; test: as above; details: Table 8
Method in brief: as §1

[12] = test system: Staphylococcus hominis DMS 20328; test: Minimum inhibitory concentration (MIC) in microtitre plates; details: Table 7; 48 hours at 37° C.; MIC = ≦20% growth compared to control
Method in brief: (§2)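 Compounds in DMSO, 1:2 dilution series; bacteria at 1–5×10^6 CFU/ml diluted 1:100 in CASO broth. Incubation 48 h at 37° C, growth read as OD 620 nm. MIC is the lowest concentration giving ≤20% growth relative to control; duplicates.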

[13] = test system: Escherichia coli NCTC 8196; test: as above; details: for Minimum inhibitory concentration (MIC) E. coli: Table 7, 48 hours at 37° C., MIC = ≦20% growth compared to control; for Minimum inhibitory concentration (MIC) E. coli NCTC 8196: Table 8, * = significant inhibition of growth, but not complete inhibition
Method in brief: as §2

Cc1cc(NCCCCCCCCCN)nc(-c2ccccn2)n1 [compound 18]
Minimum inhibitory concentration (MIC) Candida albicans ATCC 10231 [1]: >60 µg/mL
Minimum inhibitory concentration (MIC) Enterococcus hirae ATCC 10541 [2]: >60 µg/mL
Minimum inhibitory concentration (MIC) Salmonella choleraesuis ATCC 10708 [3]: >60 µg/mL
Minimum inhibitory concentration (MIC) Epidermophyton floccosum DSM 10709 [4]: >60 µg/mL
Minimum inhibitory concentration (MIC) Staphylococcus aureus ATCC 9144 [5]: >60 µg/mL
Minimum inhibitory concentration (MIC) Aspergillus niger ATCC 6275 [6]: >60 µg/mL
Minimum inhibitory concentration (MIC) S. epidermidis ATCC 12228 [7]: >60 µg/mL
Minimum inhibitory concentration (MIC) Micrococcus luteus ATCC 9341 [8]: >60 µg/mL
Minimum inhibitory concentration (MIC) Trichophyton mentagrophytes ATCC 9533 [9]: >60 µg/mL
Minimum inhibitory concentration (MIC) Klebsiella pneumonia ATCC 4352 [10]: >60 µg/mL
Minimum inhibitory concentration (MIC) Pseudomonas aeruginosa CIP A-22 [11]: >60 µg/mL
Minimum inhibitory concentration (MIC) S. hominis [12]: 120 µg/mL (≈ 366 µM)
Minimum inhibitory concentration (MIC) E. coli [13]: >120 µg/mL
Minimum inhibitory concentration (MIC) E. coli NCTC 8196 [13]: >60 µg/mL

CCc1c(C)nc(-c2ccccn2)nc1NCCCCCCCCCCCCN [compound 7]
Minimum inhibitory concentration (MIC) Candida albicans ATCC 10231 [1]: >60 µg/mL
Minimum inhibitory concentration (MIC) Enterococcus hirae ATCC 10541 [2]: >60 µg/mL
Minimum inhibitory concentration (MIC) Salmonella choleraesuis ATCC 10708 [3]: >60 µg/mL
Minimum inhibitory concentration (MIC) Epidermophyton floccosum DSM 10709 [4]: >30 µg/mL
Minimum inhibitory concentration (MIC) Staphylococcus aureus ATCC 9144 [5]: >60 µg/mL
Minimum inhibitory concentration (MIC) Aspergillus niger ATCC 6275 [6]: >30 µg/mL
Minimum inhibitory concentration (MIC) S. epidermidis ATCC 12228 [7]: >60 µg/mL
Minimum inhibitory concentration (MIC) Micrococcus luteus ATCC 9341 [8]: >60 µg/mL
Minimum inhibitory concentration (MIC) Trichophyton mentagrophytes ATCC 9533 [9]: >30 µg/mL
Minimum inhibitory concentration (MIC) Klebsiella pneumonia ATCC 4352 [10]: >60 µg/mL
Minimum inhibitory concentration (MIC) Pseudomonas aeruginosa CIP A-22 [11]: >60 µg/mL
Minimum inhibitory concentration (MIC) S. hominis [12]: 120 µg/mL (≈ 302 µM)
Minimum inhibitory concentration (MIC) E. coli [13]: 120 µg/mL (≈ 302 µM)
Minimum inhibitory concentration (MIC) E. coli NCTC 8196 [13]: >60 µg/mL

CCCCCCCCCCCCNc1cc(C(C)(C)C)nc(-c2ccccn2)n1 [compound 60]
Minimum inhibitory concentration (MIC) Candida albicans ATCC 10231 [1]: >60 µg/mL
Minimum inhibitory concentration (MIC) Enterococcus hirae ATCC 10541 [2]: 7.5 µg/mL (≈ 18.9 µM)
Minimum inhibitory concentration (MIC) Salmonella choleraesuis ATCC 10708 [3]: >60 µg/mL
Minimum inhibitory concentration (MIC) Epidermophyton floccosum DSM 10709 [4]: >60 µg/mL
Minimum inhibitory concentration (MIC) Staphylococcus aureus ATCC 9144 [5]: 15 µg/mL (≈ 37.8 µM)
Minimum inhibitory concentration (MIC) Aspergillus niger ATCC 6275 [6]: 60 µg/mL (≈ 151 µM)
Minimum inhibitory concentration (MIC) S. epidermidis ATCC 12228 [7]: *7.5 μg/mL
Minimum inhibitory concentration (MIC) Micrococcus luteus ATCC 9341 [8]: <3.75 µg/mL
Minimum inhibitory concentration (MIC) Trichophyton mentagrophytes ATCC 9533 [9]: >60 µg/mL
Minimum inhibitory concentration (MIC) Klebsiella pneumonia ATCC 4352 [10]: >60 µg/mL
Minimum inhibitory concentration (MIC) Pseudomonas aeruginosa CIP A-22 [11]: >60 µg/mL
Minimum inhibitory concentration (MIC) S. hominis [12]: 3.75 µg/mL (≈ 9.45 µM)
Minimum inhibitory concentration (MIC) E. coli [13]: 120 µg/mL (≈ 303 µM)
Minimum inhibitory concentration (MIC) E. coli NCTC 8196 [13]: >60 µg/mL

COCCc1cc(NCCCCCCCCCN)nc(-c2ccccn2)n1 [compound 78]
Minimum inhibitory concentration (MIC) Candida albicans ATCC 10231 [1]: >60 µg/mL
Minimum inhibitory concentration (MIC) Enterococcus hirae ATCC 10541 [2]: >60 µg/mL
Minimum inhibitory concentration (MIC) Salmonella choleraesuis ATCC 10708 [3]: >60 µg/mL
Minimum inhibitory concentration (MIC) Epidermophyton floccosum DSM 10709 [4]: >60 µg/mL
Minimum inhibitory concentration (MIC) Staphylococcus aureus ATCC 9144 [5]: *60 μg/mL
Minimum inhibitory concentration (MIC) Aspergillus niger ATCC 6275 [6]: >60 µg/mL
Minimum inhibitory concentration (MIC) S. epidermidis ATCC 12228 [7]: *60 μg/mL
Minimum inhibitory concentration (MIC) Micrococcus luteus ATCC 9341 [8]: >60 µg/mL
Minimum inhibitory concentration (MIC) Trichophyton mentagrophytes ATCC 9533 [9]: >60 µg/mL
Minimum inhibitory concentration (MIC) Klebsiella pneumonia ATCC 4352 [10]: >60 µg/mL
Minimum inhibitory concentration (MIC) Pseudomonas aeruginosa CIP A-22 [11]: >60 µg/mL
Minimum inhibitory concentration (MIC) S. hominis [12]: 15 µg/mL (≈ 40.4 µM)
Minimum inhibitory concentration (MIC) E. coli [13]: 60 µg/mL (≈ 161 µM)
Minimum inhibitory concentration (MIC) E. coli NCTC 8196 [13]: >60 µg/mL

CCCCCCCCCNc1cc(C)nc(-c2ccccn2)n1 [compound 22]
Minimum inhibitory concentration (MIC) Candida albicans ATCC 10231 [1]: 15 µg/mL (≈ 48 µM)
Minimum inhibitory concentration (MIC) Enterococcus hirae ATCC 10541 [2]: <3.75 µg/mL
Minimum inhibitory concentration (MIC) Salmonella choleraesuis ATCC 10708 [3]: >60 µg/mL
Minimum inhibitory concentration (MIC) Epidermophyton floccosum DSM 10709 [4]: *7.5 μg/mL
Minimum inhibitory concentration (MIC) Staphylococcus aureus ATCC 9144 [5]: 7.5 µg/mL (≈ 24 µM)
Minimum inhibitory concentration (MIC) Aspergillus niger ATCC 6275 [6]: 60 µg/mL (≈ 192 µM)
Minimum inhibitory concentration (MIC) S. epidermidis ATCC 12228 [7]: <3.75 µg/mL
Minimum inhibitory concentration (MIC) Micrococcus luteus ATCC 9341 [8]: <3.75 µg/mL
Minimum inhibitory concentration (MIC) Trichophyton mentagrophytes ATCC 9533 [9]: 15 µg/mL (≈ 48 µM)
Minimum inhibitory concentration (MIC) Klebsiella pneumonia ATCC 4352 [10]: >60 µg/mL
Minimum inhibitory concentration (MIC) Pseudomonas aeruginosa CIP A-22 [11]: >60 µg/mL
Minimum inhibitory concentration (MIC) S. hominis [12]: 3.75 µg/mL (≈ 12 µM)
Minimum inhibitory concentration (MIC) E. coli [13]: 120 µg/mL (≈ 384 µM)
Minimum inhibitory concentration (MIC) E. coli NCTC 8196 [13]: >60 µg/mL

CCCCCCCCCCCNc1nc(-c2ccccn2)nc(C)c1CC [compound 89]
Minimum inhibitory concentration (MIC) Candida albicans ATCC 10231 [1]: 15 µg/mL (≈ 40.7 µM)
Minimum inhibitory concentration (MIC) Enterococcus hirae ATCC 10541 [2]: 7.5 µg/mL (≈ 20.3 µM)
Minimum inhibitory concentration (MIC) Salmonella choleraesuis ATCC 10708 [3]: >60 µg/mL
Minimum inhibitory concentration (MIC) Epidermophyton floccosum DSM 10709 [4]: 15 µg/mL (≈ 40.7 µM)
Minimum inhibitory concentration (MIC) Staphylococcus aureus ATCC 9144 [5]: 7.5 µg/mL (≈ 20.3 µM)
Minimum inhibitory concentration (MIC) Aspergillus niger ATCC 6275 [6]: 30 µg/mL (≈ 81.4 µM)
Minimum inhibitory concentration (MIC) S. epidermidis ATCC 12228 [7]: 7.5 µg/mL (≈ 20.3 µM)
Minimum inhibitory concentration (MIC) Micrococcus luteus ATCC 9341 [8]: 1.9 µg/mL (≈ 5.16 µM)
Minimum inhibitory concentration (MIC) Trichophyton mentagrophytes ATCC 9533 [9]: *7.5 μg/mL
Minimum inhibitory concentration (MIC) Klebsiella pneumonia ATCC 4352 [10]: 60 µg/mL (≈ 163 µM)
Minimum inhibitory concentration (MIC) Pseudomonas aeruginosa CIP A-22 [11]: >60 µg/mL
Minimum inhibitory concentration (MIC) S. hominis [12]: 3.75 µg/mL (≈ 10.2 µM)
Minimum inhibitory concentration (MIC) E. coli [13]: >120 µg/mL
Minimum inhibitory concentration (MIC) E. coli NCTC 8196 [13]: >60 µg/mL

CCCCCCCCNc1nc(-c2ccccn2)nc(C)c1C(C)C [compound 69]
Minimum inhibitory concentration (MIC) Candida albicans ATCC 10231 [1]: 60 µg/mL (≈ 176 µM)
Minimum inhibitory concentration (MIC) Enterococcus hirae ATCC 10541 [2]: 3.75 µg/mL (≈ 11 µM)
Minimum inhibitory concentration (MIC) Salmonella choleraesuis ATCC 10708 [3]: >60 µg/mL
Minimum inhibitory concentration (MIC) Epidermophyton floccosum DSM 10709 [4]: 15 µg/mL (≈ 44.1 µM)
Minimum inhibitory concentration (MIC) Staphylococcus aureus ATCC 9144 [5]: 7.5 µg/mL (≈ 22 µM)
Minimum inhibitory concentration (MIC) Aspergillus niger ATCC 6275 [6]: *60 μg/mL
Minimum inhibitory concentration (MIC) S. epidermidis ATCC 12228 [7]: 7.5 µg/mL (≈ 22 µM)
Minimum inhibitory concentration (MIC) Micrococcus luteus ATCC 9341 [8]: <3.75 µg/mL
Minimum inhibitory concentration (MIC) Trichophyton mentagrophytes ATCC 9533 [9]: *15 μg/mL
Minimum inhibitory concentration (MIC) Klebsiella pneumonia ATCC 4352 [10]: *60 μg/mL
Minimum inhibitory concentration (MIC) Pseudomonas aeruginosa CIP A-22 [11]: >60 µg/mL
Minimum inhibitory concentration (MIC) S. hominis [12]: 3.75 µg/mL (≈ 11 µM)
Minimum inhibitory concentration (MIC) E. coli [13]: 120 µg/mL (≈ 352 µM)
Minimum inhibitory concentration (MIC) E. coli NCTC 8196 [13]: >60 µg/mL

CC(C)c1cc(NCCCCCCCCCN)nc(-c2ccccn2)n1 [compound 42]
Minimum inhibitory concentration (MIC) Candida albicans ATCC 10231 [1]: >60 µg/mL
Minimum inhibitory concentration (MIC) Enterococcus hirae ATCC 10541 [2]: >60 µg/mL
Minimum inhibitory concentration (MIC) Salmonella choleraesuis ATCC 10708 [3]: >60 µg/mL
Minimum inhibitory concentration (MIC) Epidermophyton floccosum DSM 10709 [4]: >60 µg/mL
Minimum inhibitory concentration (MIC) Staphylococcus aureus ATCC 9144 [5]: 60 µg/mL (≈ 169 µM)
Minimum inhibitory concentration (MIC) Aspergillus niger ATCC 6275 [6]: >60 µg/mL
Minimum inhibitory concentration (MIC) S. epidermidis ATCC 12228 [7]: 60 µg/mL (≈ 169 µM)
Minimum inhibitory concentration (MIC) Micrococcus luteus ATCC 9341 [8]: *15 μg/mL
Minimum inhibitory concentration (MIC) Trichophyton mentagrophytes ATCC 9533 [9]: >60 µg/mL
Minimum inhibitory concentration (MIC) Klebsiella pneumonia ATCC 4352 [10]: >60 µg/mL
Minimum inhibitory concentration (MIC) Pseudomonas aeruginosa CIP A-22 [11]: >60 µg/mL
Minimum inhibitory concentration (MIC) S. hominis [12]: 30 µg/mL (≈ 84.4 µM)
Minimum inhibitory concentration (MIC) E. coli [13]: 120 µg/mL (≈ 338 µM)
Minimum inhibitory concentration (MIC) E. coli NCTC 8196 [13]: >60 µg/mL
